Measurements published in patent US20130171098A1, “Cyclopropyl Fused Indolobenzazepine HCV NS5B Inhibitors” (priority 2006, published 2013).
Like-named read-outs stand apart in the source and are kept apart here.

Key:
HCV replicon cells = assay: HCV replicon FRET / luciferase assay; format: cell-based, Hepatitis C virus
Protocol: The HCV FRET screening assay was performed in 96-well cell culture plates. The FRET peptide (Anaspec, Inc.) (Taliani et al., Anal. Biochem. 1996, 240, 60-67) contains a fluorescence donor, EDANS, near one end of the peptide and an acceptor, DABCYL, near the other end. The fluorescence of the peptide is quenched by […] resonance energy transfer (RET) between the donor and the acceptor, but as the NS3 protease cleaves the peptide the products are released from RET quenching and the fluorescence of the donor becomes apparent. The assay reagent was made as follows: 5× cell Luciferase cell culture lysis reagent from Promega (#E153A) diluted to 1× with dH2O, NaCl added to 150 mM final, the FRET peptide diluted to 20 μM final from a 2 mM stock.
To prepare plates, HCV replicon cells, with or without a Renilla luciferase reporter gene, were trypsinized and plated in a 96-well plate with titrated test compounds added in columns 3 through 12; columns 1 and 2 contained a control compound (HCV control inhibitor), and the bottom row contained cells with DMSO only. The plates were then placed in a CO2 incubator at 37° C.
Subsequent to addition of the test compounds described above (FRET Assay Preparation), at various times the plate was removed and Alamar blue solution (Trek Diagnostics, #00-100) was added to measure cellular toxicity. After reading in a Cytoflour 4000 instrument (PE Biosystems), plates were rinsed with PBS and then used for FRET assay by the addition of 30 ul of the FRET peptide assay reagent described above (FRET Assay Preparation) per well. The plate was then placed into the Cytoflour 4000 instrument which had been set to 340 excite/490 emission, automatic mode for up to 20 cycles and the plate read in a kinetic mode. Typically, the signal to noise using an endpoint analysis after the reads was at least three-fold. Alternatively, after Alamar blue reading, plates were rinsed with PBS, then used for luciferase assay using the Promega Dual-Glo Luciferase Assay System or the Promega EnduRen Live Cell Substrate assay.
Compound analysis was performed by quantification of the relative HCV replicon inhibition and the relative cytotoxicity values. To calculate cytoxicity values, the average Alamar Blue fluorescence signals from the control wells were set as 100% non-toxic. The individual signals in each of the compound test wells were then divided by the average control signal and multiplied by 100% to determine […]. To calculate the HCV replicon inhibition values, an average background value was obtained from the two wells containing the highest amount of HCV control inhibitor at the end of the assay period. These numbers were similar to those obtained from naïve Huh-7 cells. The background numbers were then subtracted from the average signal obtained from the control wells and this number was used as 100% activity. The individual signals in each of the compound test wells were then divided by the averaged control values after background subtraction and multiplied by 100% to determine percent activity. […] The two numbers generated for the compound plate, percent cytoxicity and percent activity, were used to determine compounds of interest for further analysis.

[1] = target: T1, HCV NS5B RdRp genotype 1b (Hepatitis C virus genotype 1b, UniProt Q9WMX2); assay: HCV NS5B RdRp enzyme assay (standard / modified); format: biochemical
T1 construct: The protein was expressed with an 18 amino acid C-terminal truncation to enhance the solubility; made in house; host or cells: E. coli BL21(DE3), pET21a vector
T1 sequence (Q9WMX2 2420-2992): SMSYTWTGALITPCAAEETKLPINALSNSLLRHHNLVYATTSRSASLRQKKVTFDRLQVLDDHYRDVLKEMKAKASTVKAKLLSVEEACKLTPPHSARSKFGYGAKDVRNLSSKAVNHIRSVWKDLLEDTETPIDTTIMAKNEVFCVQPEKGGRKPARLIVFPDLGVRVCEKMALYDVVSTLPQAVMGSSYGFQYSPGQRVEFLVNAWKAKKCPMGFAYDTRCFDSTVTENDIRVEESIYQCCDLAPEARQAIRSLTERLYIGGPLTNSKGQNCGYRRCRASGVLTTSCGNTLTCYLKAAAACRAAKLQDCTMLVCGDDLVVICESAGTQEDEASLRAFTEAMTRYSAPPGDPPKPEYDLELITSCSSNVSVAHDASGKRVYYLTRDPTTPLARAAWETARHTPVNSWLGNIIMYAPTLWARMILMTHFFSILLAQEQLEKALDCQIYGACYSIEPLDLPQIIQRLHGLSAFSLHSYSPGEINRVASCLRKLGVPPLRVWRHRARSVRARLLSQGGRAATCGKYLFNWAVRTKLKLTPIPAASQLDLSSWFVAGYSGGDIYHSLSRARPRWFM
Protocol: HCV NS5B RdRp Cloning, Expression, and Purification.
The cDNA encoding the NS5B protein of HCV, genotype 1b, was cloned into the pET21a expression vector. The protein was expressed with an 18 amino acid C-terminal truncation to enhance the solubility. The E. coli competent cell line BL21(DE3) was used for expression of the protein. Cultures were grown at 37° C. for ˜4 hours until the cultures reached an optical density of 2.0 at 600 nm. The cultures were cooled to 20° C. and induced with 1 mM IPTG. Fresh ampicillin was added to a final concentration of 50 μg/ml and the cells were grown overnight at 20° C.
The lysis buffer consisted of 20 mM Tris-HCl, pH 7.4, 500 mM NaCl, 0.5% triton X-100, 1 mM DTT, 1 mM EDTA, 20% glycerol, 0.5 mg/ml lysozyme, 10 mM MgCl2, 15 ug/ml deoxyribonuclease I, and Complete TM protease inhibitor tablets (Roche). After addition of the lysis buffer, frozen cell pellets were resuspended using a tissue homogenizer. To reduce the viscosity of the sample, aliquots of the lysate were sonicated on ice using a microtip attached to a Branson sonicator. The sonicated lysate was centrifuged at 100,000×g for 1 hr at 4° C. and filtered through a 0.2 μm filter unit (Corning).
The protein was purified using two sequential chromatography steps: Heparin sepharose CL-6B and polyU sepharose 4B (Pharmacia). The chromatography buffers were identical to the lysis buffer but contained no lysozyme, deoxyribonuclease I, MgCl2 or protease inhibitor and the NaCl concentration of the buffer was adjusted according to the requirements for charging the protein onto the column. Each column was eluted with a NaCl gradient which varied in length from 5-50 column volumes depending on the column type. […] The enzyme was aliquoted and stored at −80° C.
Standard HCV NS5B RdRp Enzyme Assay.
HCV RdRp genotype 1b assays were run in a final volume of 60 μl in 96 well plates (Corning 3600). The assay buffer is composed of 20 mM Hepes, pH 7.5, 2.5 mM KCl, 2.5 mM MgCl2, 1 mM DTT, 1.6 U RNAse inhibitor (Promega N2515), 0.01 mg/ml BSA (Sigma B6917), and 2% glycerol. All compounds were serially diluted (3-fold) in DMSO and diluted further in water such that the final concentration of DMSO in the assay was 2%. HCV RdRp genotype 1b enzyme was used at a final concentration of 28 nM. A polyA template was used at 6 nM, and a biotinylated oligo-dT12 primer was used at 180 nM final concentration. Template was obtained commercially (Amersham 27-4110). Biotinylated primer was prepared by Sigma Genosys. 3H-UTP was used at 0.6 μCi (0.29 μM total UTP). Reactions were initiated by the addition of enzyme, incubated at 30° C. for 60 min, and stopped by adding 25 μl of 50 mM EDTA containing SPA beads (4 μg/μl, Amersham RPNQ 0007). Plates were read on a Packard Top Count NXT after >1 hr incubation at room temperature.
Modified HCV NS5B RdRp Enzyme Assay.
A modified enzyme assay was performed essentially as described for the standard enzyme assay except for the following: The biotinylated oligo dT12 primer was precaptured on streptavidin-coated SPA beads by mixing primer and beads in assay buffer and incubating at room temperature for one hour. Unbound primer was removed after centrifugation. The primer-bound beads were resuspended in 20 mM Hepes buffer, pH 7.5 and used in the assay at final concentrations of 20 nM primer and 0.67 μg/μl beads. Order of addition in the assay: enzyme (1.75 nM) was added to diluted compound followed by the addition of a mixture of template (0.36 nM), 3H-UTP (0.6 μCi, 0.29 μM), and primer-bound beads, to initiate the reaction; concentrations given are final. Reactions were allowed to proceed for 4 hours at 30° C.
IC50 values for compounds were determined using seven different [I].

[2] = HCV replicon cells, FRET or luciferase activity

Row | Structure (SMILES) | EC50 (HCV replicon cells; Hepatitis C virus) | further results
1 | COc1ccc2c(c1)C1CC1(C(=O)N1C3CCC1CN(C)C3)Cn1c-2c(C2CCCCC2)c2ccc(C(=O)NS(=O)(=O)C3CCCC3)cc21 (stereo not drawn) | 1 to 500 nM | 
2 | CC(C)S(=O)(=O)NC(=O)c1ccc2c(C3CCCCC3)c3n(c2c1)CC1(C(=O)N2C4CCC2CN(C)C4)CC1c1ccccc1-3 (stereo not drawn) [drawing 126] | 1 to 500 nM | 
3 | COc1ccc2c(c1)[C@H]1C[C@@]1(C(=O)N1C3CCC1CN(C)C3)Cn1c-2c(C2CCCCC2)c2ccc(C(=O)NS(=O)(=O)C(C)C)cc21 | 1 to 500 nM | 
4 | COc1ccc2c(c1)C1CC1(C(=O)N1C3CCC1CN(C)C3)Cn1c-2c(C2CCCCC2)c2ccc(C(=O)NS(=O)(=O)CCC(F)(F)F)cc21 (stereo not drawn) | 1 to 500 nM | 
5 | CC(C)S(=O)(=O)NC(=O)c1ccc2c(C3CCCCC3)c3n(c2c1)CC1(C(=O)N2C4CCC2CN(C)C4)CC1c1ccccc1-3 (stereo not drawn) [drawing 130] |  | EC50 (HCV replicon cells; [2]): 1 to 500 nM
6 | COC(=O)c1ccc2c(C3CCCCC3)c3n(c2c1)CC1(C(=O)N2C4CCC2CN(C)C4)CC1c1c(OC(F)(F)F)cccc1-3 (stereo not drawn) |  | IC50 [1]: > 500 nM
7 | COc1ccc2c(c1)C1CC1(C(=O)N1C3CCC1CN(C)C3)Cn1c-2c(C2CCCCC2)c2ccc(C(=O)NS(=O)(=O)C(C)(C)C)cc21 (stereo not drawn) | 1 to 500 nM | 
8 | COc1ccc2c(c1)C1CC1(C(=O)N1C3CCC1CN(C)C3)Cn1c-2c(C2CCCCC2)c2ccc(C(=O)NS(=O)(=O)CC(F)(F)F)cc21 (stereo not drawn) | 1 to 500 nM | 
9 | COc1ccc2c(c1)C1CC1(C(=O)N1C3CCC1CN(C)C3)Cn1c-2c(C2CCCCC2)c2ccc(C(=O)NS(=O)(=O)CC(C)C)cc21 (stereo not drawn) |  | EC50 (HCV replicon cells; Hepatitis C virus, HCV replicon cells, FRET or luciferase activity, read-out: EC50): 1 to 500 nM
10 | CCCS(=O)(=O)NC(=O)c1ccc2c(C3CCCCC3)c3n(c2c1)CC1(C(=O)N2C4CCC2CN(C)C4)CC1c1cc(OC)ccc1-3 (stereo not drawn) | 1 to 500 nM | 
11 | CCC(C)S(=O)(=O)NC(=O)c1ccc2c(C3CCCCC3)c3n(c2c1)CC1(C(=O)N2C4CCC2CN(C)C4)CC1c1cc(OC)ccc1-3 (stereo not drawn) | 1 to 500 nM | 
12 | CN1CC2CCC(C1)N2C(=O)C12CC1c1ccccc1-c1c(C3CCCCC3)c3ccc(C(=O)NS(=O)(=O)N(C)C)cc3n1C2 (stereo not drawn) | 1 to 500 nM | 
13 | CC(C)S(=O)(=O)NC(=O)c1ccc2c(C3CCCCC3)c3n(c2c1)CC1(C(=O)N2C4CCC2CN(C)C4)CC1c1ccccc1-3 (stereo not drawn) [drawing 131] |  | EC50 (HCV replicon cells; [2]): 1 to 500 nM
14 | COC(=O)c1ccc2c(C3CCCCC3)c3n(c2c1)CC1(C(=O)N2C4CCC2CN(C)C4)CC1c1c(OC)cccc1-3 (stereo not drawn) |  | IC50 [1]: > 500 nM
15 | COc1ccc2c(c1)[C@@H]1C[C@]1(C(=O)N1C3CCC1CN(C)C3)Cn1c-2c(C2CCCCC2)c2ccc(C(=O)NS(=O)(=O)C(C)C)cc21 | 1 to 500 nM | 
